Source: USRE29883E, “Antibacterial product” (Cosan Chemical Corporation, priority 1977, dated 1979)

Assays:
[1] = Acute Oral LD50; conditions: in vivo, standard, accepted protocols
From the text: (§1) Both the acute oral LD50 and acute dermal LD50 tests were run in accordance with standard, accepted protocols.

[2] = Acute Dermal LD50; conditions: in vivo, topical or ocular, standard, accepted protocols
From the text: as §1

[3] = test system: Pseudomonas aeruginosa; assay: antibacterial properties of latex paint inoculated with Pseudomonas aeruginosa (Example 4); conditions: 3.6 grams adduct in vinyl acrylic paint
Experimental: To a 1 gallon stainless steel beaker, equipped with a sheer type agitator, the following ingredients are charged in sequence:
This premix is then added to the above with agitation such that excessive air is not incorporated. To the above prepared combination is added 1,401 grams of a vinyl acrylic resin emulsion and mixed for a period of 10 minutes.
The resulting paint prepared above was examined for antibacterial properties by inoculating a portion with approximately 10^8 organisms per ml Pseudomonas aeruginosa. Paint samples returned to sterility within 24 hours of inoculation and maintained the same degree of preservation for periods in excess of 9 months, at which time the testing was discontinued.

[4] = toxicological comparison with the one-to-one adducts (acute dermal and acute oral LD50); format: in vivo
From the text: Additionally, the two-to-one adduct formed from hexamethylenetetramine and 3,4-dichlorobutene-1 according to this invention is less toxic than either the Frank or Wolf one-to-one adducts.
as §1

[5] = thermal decomposition; format: physicochemical
[6] = water solubility; format: physicochemical
[7] = test system: bacterial cultures; assay: microbial stability of oil-water hair dressing emulsion (Example 5); conditions: 0.2% adduct in oil-water hair dressing emulsion; after 6 months at 35° C
Experimental: The following is a formulation for an oil-water hair dressing emulsion: […]
Part A is heated to 75° C. and Part B is heated to 70° C. The test compound (Part C) is dissolved in Part B and the resulting solution added to Part A with good agitation. The mixture was perfumed 45° C. and agitated until cold.
The composition prepared above was tested for microbial stability for a period of 6 months and after 6 months at 35° C.

[8] = test system: gram positive and gram negative microorganisms; assay: antimicrobial spectrum, general statement
From the text: The two-to-one quaternary ammonium adduct of this invention is particularly useful as an antimicrobial agent in a wide variety of water-based systems such as latex paints, resin emulsions, joint cement, adhesives, dispersed pigments and dyes, and other similar aqueous compositions.

[9] = test system: common forms of bacteria; assay: antimicrobial effectiveness in water-based systems, general statement; conditions: relative to suggested range 0.05% to 0.20%
From the text: The two-to-one quaternary ammonium adduct of this invention is useful in the preparation and storage of systems susceptible to deterioration by microorganisms such as the common forms of bacteria. The exact concentration of the adduct during use is dependent upon a number of factors including duration of storage, temperature of storage, etc.

[10] = data available from Dow Chemical on Dowicil 100; cited from earlier work
[11] = data available from Dow Chemical on Dowicil 200; cited from earlier work

Compound | LD50 [1] [mg/kg] | LD50 [2] [mg/kg] | preservation of paint viscosity, stability and performance characteristics [3] | time for paint samples to return to sterility after inoculation ([3]; approximately 10^8 organisms per ml Pseudomonas aeruginosa) [h] | period for which the same degree of preservation was maintained ([3]; testing then discontinued) [months] | toxicity relative to the Frank or Wolf one-to-one adducts [4] | decomposition point [5] | water solubility [6] | resistance to bacterial contamination on inoculation with bacterial cultures [7] | effectiveness against microorganisms [8] | minimal inhibitory concentrations vis-a-vis the common bacteria [9] | Acute Oral LD50 [10] [mg/kg] | Acute Dermal LD50 [11] [mg/kg]
C(=CC[N+]12CN3CN(CN(C3)C1)C2)C[N+]12CN3CN(CN(C3)C1)C2 [1,1'-(but-2-enylene) bis(3,5,7-triaza-1-azoniaadamantane chloride)] | 3400 | 8000 | maintained the viscosity, stability and performance characteristics of the paint | ≤ 24 | > 9 | less toxic | about 130 °C | water-soluble | still resistant to bacterial contamination | effective against a broad spectrum of gram positive and gram negative microorganisms | much less than this suggested range | – | –
ClCC=CC[N+]12CN3CN(CN(C3)C1)C2 [reference compound] | 1600 | 2000 | – | – | – | – | – | – | – | – | – | – | –
ClC=CC[N+]12CN3CN(CN(C3)C1)C2 | – | – | – | – | – | – | – | – | – | – | – | 745 | 540
